Measured values reported in paper PMC10720262, “Molecular determinants of cross-reactivity and potency by VH3-33 antibodies against the Plasmodium falciparum circumsporozoite protein” (Cell Reports, 2023).
Like-named read-outs stand apart in the source and are kept apart here.

Assays:
NANP3 peptide ([…]) [1] = experiment: SPR (Biacore T200), NANP3 peptide; format: binding, Plasmodium falciparum
Method: (§1) With the exception of NANP6, all other peptides were acetylated at N-termini and amidated at C-termini. NANP6 contained an N-terminal biotin-aminohexanoic acid tag and an unmodified C terminus.
(§2) Affinity of 56 VH3-33 mAbs to DND and NANP3 peptides were measured using SPR in Biacore Cytiva T200, as described before.[21] In brief, series S sensor chip CM5 (GE Healthcare) was docked in the instrument and 10 mM HEPES (pH 7.4) containing 200 mM NaCl, 0.02% Tween 20 and 0.05% BSA was used as running buffer. Anti-human IgG from human antibody capture kit (GE Healthcare) was immobilized in both flow cells through amine coupling following manufacturer’s instructions. […] Upon stabilizing flow cells with running buffer for 20 min, indicated peptides synthesized at PSL Heidelberg were injected at 0, 0.015, 0.09, 0.55, 3.3 and 20 μM concentration at a flow rate of 30 μL/min. Association and dissociation of the peptides were measured at 25°C for 60 s and 180 s, respectively. 3M MgCl2 was used for the regeneration of both flow cells. 1:1 binding model or steady-state kinetic analysis in the Biacore T200 software V2.0 was used for fitting the data and obtaining kinetic rates and constant.

KQPA peptide ([…]) [2] = experiment: Peptide ELISA (AUC), KQPA; format: binding, Plasmodium falciparum
Method: as §1
(§3) Antigen ELISAs were performed as previously described.[21]^,[25] In brief, high-binding 384-well polystyrene plates (Corning) were coated overnight at 4°C with 2 μg/mL of the indicated peptides synthesized at PSL, Heidelberg. Plates were washed three times with 0.05% Tween 20 in PBS, blocked with 50 μL of 1% BSA in PBS for 1 h at room temperature (RT), and washed again. For analysis of mAbs, 15 μL/well of serially diluted mAbs (starting concentration 1.0 μg/mL, 1 in 4 dilution for 4 steps) were incubated for 2 h at RT. Wells were washed six times and incubated with goat anti-human IgG-HRP at a 1:1000 dilution (Jackson ImmunoResearch) in PBS with 1% BSA for 1 h. Wells were washed again and one-step ABTS substrate (RT, 20 μL/well; Roche) and 1× KPL ABTS peroxidase stop solution (RT, 20 μL/well; SeraCare Life Sciences) were used for detection. Area under the ELISA curve (AUC) was calculated using GraphPad Prism 7.04 (GraphPad).

NPDP peptide ([…]) [3] = experiment: Peptide ELISA (AUC), NPDP; format: binding, Plasmodium falciparum; conditions: plates coated with 2 μg/mL peptide; mAb from 1.0 μg/mL, 1 in 4 dilution, 4 steps; area under ELISA curve; mean of three independent experiments
Method: as §1, §3

NANP3 peptide ([…]) [4] = experiment: Peptide ELISA (AUC), NANP3; format: binding, Plasmodium falciparum
Method: as §1, §3

NDN peptide ([…]) = experiment: Peptide ELISA (AUC), NDN; format: binding, Plasmodium falciparum
Method: as §1, §3

KQPA peptide ([…]) [5] = experiment: SPR (Carterra LSA), KQPA peptide; format: binding, Plasmodium falciparum; conditions: mAb immobilized on CMD200M chip, peptide 2-fold series, top 8 μg/mL (5.03 μM), 1X HBSTE pH 7.4, 25°C, 1:1 Langmuir model, mean of best triplicate
Text: (§4) Synthetic peptides were custom made by Peptide Speciality Laboratory (PSL), Heidelberg (KQPA ([…]), NPDP ([…]), DND ([…]), NDN ([…]) and NANP3 ([…])), CPC Scientific (NPNA3 ([…]), NANP6 ([…]), KQPA, NPDP and NVDP ([…])) or GenScript (KQPA, NPDP, NANP3, NDN, DND, and NANP5 ([…])). With the exception of NANP6, all other peptides were acetylated at N-termini and amidated at C-termini. NANP6 contained an N-terminal biotin-aminohexanoic acid tag and an unmodified C terminus.
(§5) In each assay, a single analyte peptide antigen (KQPA, NPDP, NVDP, NPNA3 or NANP6) was titrated against the immobilized mAbs. Using 10 mM MES buffer at pH 5.5 with 0.01% Tween 20 as running buffer, the chip was first activated by N-Hydroxysuccinimide (NHS) and 1-Ethyl-3-(3-dimethylaminopropyl) carbodiimide hydrochloride (EDC). Then, PfCSP-specific mAbs were directly immobilized (in 10 mM sodium acetate at pH 4.5) at 10 μg/mL or 5 μg/mL concentrations for 600 s, followed by quenching of unreactive esters using 1 M ethanolamine-HCl at pH 8.5. […]
(§6) The kinetics titration data collected were first pre-processed in the Kinetics (Carterra) software, including reference subtraction, buffer subtraction and data smoothing. The data were then exported and analyzed using the TitrationAnalysis tool developed in-house.[58] […] For antigens with multiple repeats of epitopes, the KD values determined includes avidity effect.

NPDP peptide ([…]) [6] = experiment: SPR (Carterra LSA), NPDP peptide; format: binding, Plasmodium falciparum; conditions: mAb immobilized on CMD200M chip, peptide 2-fold series, top 8 μg/mL ([…]), 1X HBSTE pH 7.4, 25°C, 1:1 Langmuir model, mean of best triplicate
Text: as §4, §5, §6

NPNA3 peptide ([…]) = experiment: SPR (Carterra LSA), NPNA3 peptide; format: binding, Plasmodium falciparum; conditions: mAb immobilized on CMD200M chip, peptide 2-fold series, top 8 μg/mL (6.41 μM), 1X HBSTE pH 7.4, 25°C, 1:1 Langmuir model, mean of best triplicate
Text: as §4, §5, §6

NANP6 peptide ([…]) = experiment: SPR (Carterra LSA), NANP6 peptide; format: binding, Plasmodium falciparum; conditions: mAb immobilized on CMD200M chip, peptide 2-fold series, top 8 μg/mL (2.92 μM), 1X HBSTE pH 7.4, 25°C, 1:1 Langmuir model, mean of best triplicate, KD includes avidity effect for antigens with multiple repeats of epitopes
Text: as §4, §5, §6

[7] = biological target: recombinant full-length PfCSP (strain NF54); experiment: Biolayer interferometry (BLI) binding to recombinant PfCSP; parameters: species or system Plasmodium falciparum; conditions: Octet RED96, His-tagged PfCSP 10 μg/mL on Ni-NTA biosensors, 2-fold dilutions of mAb in PBS pH 7.4/0.01% BSA/0.002% Tween 20, 1:1 binding model
Method: The resulting plasmid was transfected into FreeStyle HEK293F cells and GFP fluorescence was used to select for single cells via FACS. The selected single cell was expanded and cultured in GIBCO Freestyle 293 Expression Medium and maintained with 200 μg/mL of geneticin (G418 solution; Invivogen). Protein expression was enabled by subculturing the stable cells without antibiotic to a density of 8 x 10^5 cells/mL and harvested after 5–7 days.
After a steady baseline was established, biosensors were dipped into wells containing 2-fold dilutions of each mAb in kinetics buffer. Tips were then immersed back into kinetics buffer for measurement of the dissociation rate. Kinetics data were analyzed using the FortéBio’s Octet Data Analysis software 9.0.0.6, and curves were fitted to a 1:1 binding model.

[8] = test system: Pf sporozoites (traversal of HC-04 cells); experiment: In vitro sporozoite traversal assay; format: cell-based, Plasmodium falciparum; conditions: Pf NF54 sporozoites pre-incubated with diluted IgG 30 min, rhodamine dextran, 1 h at 37°C, high content imaging
Method: Pf NF54 asexual and sexual blood stage parasites were cultured in a semi-automated culture system as described by Ponnudurai.[69]^,[70] Sporozoites were produced by feeding Anopheles stephensi mosquitos (Sind-Kasur Nijmegen strain) using standard membrane feeding of cultured gametocytes, as was described by Feldmann.[71] Salivary glands were dissected, collected in Leibovitz L15 medium supplemented with 1% PenStrep and homogenized in a homemade glass grinder. Sporozoites were counted in a Bürker-Türk counting chamber using phase-contrast microscopy.
Human hepatoma (HC-04) cells were seeded in microtiter plates and grown to near confluence. Fresh P. falciparum salivary gland sporozoites[56] were isolated from Anopheles stephensi mosquitoes and pre-incubated with diluted IgG for 30 min before adding rhodamine dextran. Following incubation for 1 h at 37°C, cell nuclei were stained with DAPI. Fluorescence levels of traversed cells were quantitated using a high content automated imager.

DND peptide ([…]) [9] = experiment: Peptide ELISA (AUC), DND; format: binding, Plasmodium falciparum; conditions: ELISA Area Under the Curve
Method: as §1, §3

[10] = test system: transgenic Plasmodium berghei sporozoites expressing PfCSP (PbPfCSP); experiment: Liver burden reduction assay; format: in vivo, Plasmodium berghei in C57BL/6 mice; conditions: C57BL/6 mice, 100 μg mAb i.v., 16 h later 2,000 PbPfCSP sporozoites i.v., bioluminescence 42 h after challenge; relative to naive mice; n=5
Text: P. berghei transgenic parasites expressing PfCSP, GFP and luciferase were generated as previously described.[57] Briefly, P. berghei, strain ANKA 676m1c11, which expresses GFP and luciferase were obtained from MR4 (ATCC). Parasites were transfected to replace the CSP gene with a modified gene consisting of the CSP of Pf. To obtain sporozoites, Anopheles stephensi mosquitos were fed on mice infected with the parasite. 19–22 days later salivary glands from the infected mosquitos were obtained and sporozoites were isolated to infect mice.
Parasite challenge to measure liver burden was assessed as previously described.[57] Briefly, 6-8-week-old C57BL/6 female mice were injected intravenously with 100 μg of the respective mAb. Mice were challenged 16 h later with 2,000 PfCSP-expressing transgenic Pb sporozoites delivered i.v. in HBSS-2% FBS. Mice were injected intraperitoneally with 100 μL of D-luciferin at 30 mg/mL 42 h after sporozoite challenge, anesthetized with isoflurane and imaged in the IVIS Spectrum Imaging System to measure the bioluminescence expressed by the transgenic parasite.

DND peptide ([…]) [11] = experiment: SPR (Biacore T200), DND peptide; format: binding, Plasmodium falciparum
Method: as §1, §2

[12] = plates coated with 2 μg/mL peptide, mAb from 1.0 μg/mL, 1 in 4 dilution, 4 steps, area under ELISA curve, mean of three independent experiments

## LVQLVESGGGVVQPGRSLRLSCAASGFTFSSSGMHWVRQAPGKGLEWVAIIWYDGSNKFYADSVKGRFTISRDNSKNTLYLQMNSLRAEDTAVYYCARAYVSGSHGDKYGMDVWGQGTTVTVSS [CL-531912]
NANP3 peptide ([…]) [1]; SPR, NANP3 peptide, read-out: NANP3 KD
  Kd: 55 nM

## mAb CIS43: previously characterized NPDP-specific human anti-PfCSP mAb (IGHV1-3) [reference compound]
KQPA peptide ([…]) [2]; [12]
  ELISA AUC KQPA: 0.10
NPDP peptide ([…]) [3]
  ELISA AUC NPDP: 1.50
NANP3 peptide ([…]) [4]; [12]
  ELISA AUC NANP3: 0.20
NDN peptide ([…]); [12]
  ELISA AUC NDN: 0.20
NANP3 peptide ([…]) [1]; Biacore T200, mAb captured via anti-human IgG on CM5, peptide 0-20 μM, 25°C, 1:1 binding model or steady-state analysis, single measurement for sample mAbs, three independent measurements for previously characterized mAbs, read-out: SPR NANP3 KD
  Kd: 1720 nM
KQPA peptide ([…]) [5]
  SPR KQPA KD: Non-binder
NPDP peptide ([…]) [6]
  Kd: 19.1 nM
NPNA3 peptide ([…])
  Kd: 9430 nM
NANP6 peptide ([…])
  Kd: 54.9 nM
[7]
  Kd: 15.6 nM
[8]
  Traversal Inhibition IC50: 0.362 µg/mL

## QVQLVESGGGVVQPGGSLRLSCAASGFTFSGSGMHWVRHAPGKGLEWVAIIWYDGSNKFYADSVKGRFTISRDNSRNTLYLQMNSLRAEDTAVYYCARAYVSGNYGDKYGMDVWGQGTTVTVSS [CL-532151]
KQPA peptide ([…]) [2]; ELISA Area Under the Curve, KQPA peptide
  KQPA AUC: 1.36
NANP3 peptide ([…]) [4]; ELISA Area Under the Curve, NANP3 peptide
  NANP3 AUC: 1.84
DND peptide ([…]) [9]
  DND AUC: 2.23
NDN peptide ([…]); ELISA Area Under the Curve, NDN peptide
  NDN AUC: 0.29

## Ky311: VH3-33/Vk3-11 anti-PfCSP mAb from Kymouse platform, expressed as human IgG1; MGG4-like binding mode
KQPA peptide ([…]) [5]
  Kd: 427 nM
NPDP peptide ([…]) [6]
  Kd: 3.75 nM
NPNA3 peptide ([…])
  Kd: 1.07 nM
[7]
  Kd: 7.39 nM
[8]
  Traversal Inhibition IC50: 0.664 µg/mL
[10]
  Liver Burden Assay Reduction: 75%

## QIQLVESGGGVVQPGRSLRLSCAASGFTFSTYGMHWVRQAPGKGLEWVAVIWYDGSNKYYADSVQGRFTISRDNSKNTLYLQMNSLRAEDTAIYYCTTVGPIPFDYWGQGTLVTVSS [CL-514716]
DND peptide ([…]) [11]
  DND KD (M): Non-binder
NANP3 peptide ([…]) [1]; SPR, NANP3 peptide
  NANP3 KD (M): Non-binder
